Assay results reported in PubChem BioAssay AID2060897 (Molecular Pharmacology Branch, DTP, NCI, 2025).

Test system: 966289-007-R4-J1-PDC complex spheroid viability
Experiment: Anticancer human tumor 966289-007-R4-J1-PDC patient-derived pancreatic adenocarcinoma cell line growth inhibition [RAS]
Conditions: for IC50: curve of first compound; for viability, T/C: stronger effect = lower value; active = viability on the fitted dose curve at most 10% of control; inactive = the rest
In short: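 Multi-cell-type spheroids: tumor cells plus HUVEC endothelial cells and mesenchymal stem cells. RAS-pathway inhibitors were combined with targeted agents, each dosed in half-log steps down from clinical Cmax, or from 10 microM when Cmax was unknown.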
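Also: spheroids exposed to agents for one week before readout.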
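For viability, T/C in this document: percent viability relative to DMSO vehicle control wells as 100%.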

CC1(O)CCCC1n1c(=O)c(C(F)F)cc2cnc(NC3CCN(S(C)(=O)=O)CC3)nc21 (configuration not stated) + CCn1c(-c2cc(N3CCN(C)CC3)cnc2C(C)OC)c2c3cc(ccc31)-c1csc(n1)CC(NC(=O)C1CC1C)C(=O)N1CCCC(N1)C(=O)OCC(C)(C)C2
92.8 nM: IC50 (second compound 0.03 µM)
inactive: viability, T/C (second compound 0.000949 µM, first compound 0.0316 µM) 148% | viability, T/C (second compound 0.000949 µM, first compound 0.1 µM) 63.6% | viability, T/C (second compound 0.000949 µM, first compound 0.316 µM) 28.7% | viability, T/C (second compound 0.000949 µM, first compound 1 µM) 29.1% | viability, T/C (second compound 0.000949 µM, first compound 3.16 µM) 26.8% | viability, T/C (second compound 0.000949 µM, first compound 10 µM) 2.64% | viability, T/C (second compound 0.003 µM, first compound 0.0316 µM) 125% | viability, T/C (second compound 0.003 µM, first compound 0.1 µM) 51.6% | viability, T/C (second compound 0.003 µM, first compound 0.316 µM) 27.8% | viability, T/C (second compound 0.003 µM, first compound 1 µM) 24.4% | viability, T/C (second compound 0.003 µM, first compound 3.16 µM) 24.8% | viability, T/C (second compound 0.003 µM, first compound 10 µM) 3.3% | viability, T/C (second compound 0.00949 µM, first compound 0.0316 µM) 98.4% | viability, T/C (second compound 0.00949 µM, first compound 0.1 µM) 52.7% | viability, T/C (second compound 0.00949 µM, first compound 0.316 µM) 22.4% | viability, T/C (second compound 0.00949 µM, first compound 1 µM) 25.9% | viability, T/C (second compound 0.00949 µM, first compound 3.16 µM) 26% | viability, T/C (second compound 0.00949 µM, first compound 10 µM) 3.14% | viability, T/C (second compound 0.03 µM, first compound 0.0316 µM) 85% | viability, T/C (second compound 0.03 µM, first compound 0.1 µM) 48.6% | viability, T/C (second compound 0.03 µM, first compound 0.316 µM) 21.9% | viability, T/C (second compound 0.03 µM, first compound 1 µM) 23.7% | viability, T/C (second compound 0.03 µM, first compound 3.16 µM) 25.1% | viability, T/C (second compound 0.03 µM, first compound 10 µM) 3% | viability, T/C (second compound 0.0949 µM, first compound 0.0316 µM) 84.5% | viability, T/C (second compound 0.0949 µM, first compound 0.1 µM) 47.4% | viability, T/C (second compound 0.0949 µM, first compound 0.316 µM) 25.4% | viability, T/C (second compound 0.0949 µM, first compound 1 µM) 27.1% | viability, T/C (second compound 0.0949 µM, first compound 3.16 µM) 26.6% | viability, T/C (second compound 0.0949 µM, first compound 10 µM) 2.94% | viability, T/C (second compound 0.3 µM, first compound 0.0316 µM) 107% | viability, T/C (second compound 0.3 µM, first compound 0.1 µM) 55.9% | viability, T/C (second compound 0.3 µM, first compound 0.316 µM) 28.7% | viability, T/C (second compound 0.3 µM, first compound 1 µM) 25.8% | viability, T/C (second compound 0.3 µM, first compound 3.16 µM) 24.9% | viability, T/C (second compound 0.3 µM, first compound 10 µM) 3.18%
120 nM: IC50 (second compound 0.003 µM)
139 nM: IC50 (second compound 0.3 µM)
169 nM: IC50 (second compound 0.000949 µM)
108 nM: IC50 (second compound 0.00949 µM)
96 nM: IC50 (second compound 0.0949 µM)
